Measured values reported in patent EP1551873B1, “AGONISTS AND ANTAGONISTS OF THE HUMAN ODORANT RECEPTOR OR17-4 AND USES THEREOF” (Symrise AG, priority 2002, dated 2004).

What was measured:
humane Spermien [1] = test: Sperm chemotaxis flat capillary assay (cell density in capillary); format: cell-based, human
Description: Gefrorene Samenproben von fünf gesunden Spendern wurden aus der California Cryobank (Los Angeles, CA, USA) erhalten und für Bioassays gemäß den World Health Organization-Richtlinien (World Health Organization: Laboratory for the examination of human serum and semen-cervical mucus interaction, Cambridge University Press (1993)) vorbereitet. Nachdem die Suspensionen auf 37 °C für 10 Minuten gebracht worden waren, wurde jede Probe in HEPES-gepufferter humaner Tubarflüssigkeit (HTF; Irvine Scientific, Santa Ana, CA, USA) überführt und auf 10^7 Zellen/ml eingestellt. Die Lösungen wurden dann bei 37 °C in einer 5 %-igen CO2-Atmosphäre aufbewahrt und innerhalb von 30 Minuten für Experimente verwendet (P. Quinn, Journal of Assisted Reproductive Genetics 12, 97-105 (1995)). Die Reaktionen von Sperma auf Bourgeonal wurde (a) durch computer-assisted video motion analysis (CAVMA) gemessen, um Veränderungen in der Schwimmgeschwindigkeit (Spermaaktivierung) zu detektieren, und (b) in einem flat capillary-Assay für die Chemotaxis in der Nähe einer Diffusionsmaterialquelle untersucht. Für jede Test-oder Kontroll-Behandlung wurden fünf wiederholte Experimente unter Verwendung von Sperma der fünf Spender durchgeführt. Die Daten der Bioassays wurden statistisch durch Ein-Weg-Varianzanalyse (ANOVA) unter Verwendung eines post-hoc Scheffe-Tests (R. W. Day and G. P. Quinn, Ecol. Monogr. 59, 433-463 (1989)) analysiert. Eine Bonferroni-Korrektur wurde zum Angleichen der α-Levels für multiple Vergleiche verwendet.
Zur Untersuchung der Spermien-Chemotaxis wurden Kammern mit vier getrennten Kompartimenten verwendet, wobei die Kapillar-Methode von Adler (J. Adler, Science 153, 708-716 (1966); J. Adler, Journal of General Microbiology 74, 77-91 (1973)) modifiziert wurde. Jedes Kompartiment bestand aus zwei durch einen Kanal verbundenen Vertiefungen. Die Spermienproben (10^6 Zellen/ml) wurden jeweils in den Vertiefungen vorgelegt. Ein flaches 6 µl-Mikrokapillarröhrchen (Drummond Scientific Co.), das entweder Test- oder Kontrolllösung enthielt, wurde in den Kanal eingeführt, wobei seine beiden Enden die frischen Spermien-Suspensionen innerhalb der zwei Vertiefungen berührten. Nach vier Stunden Inkubation bei 37 °C wurden die Inhalte jeder Kapillare in die Vertiefung eines Toxoplasmose-Objektträgers transferiert, hitzefixiert und mit 0,1 Acridin-Orange 1 Minute lang gefärbt. Zellzählungen wurden dann unter Verwendung eines Olympus-BH2-Mikroskopes, das für Phasenkontrast- und Epifluoreszenz-Applikationen ausgerüstet war (J. A. Riffell, P. J. Krug, R. K. Zimmer, Journal of Experimental Biology 205, 1439-1450 (2002); C. C. Gee and R. K. Zimmer-Faust, Journal of Experimental Biology 200, 3185-3192 (1997)), bei 67-facher Vergrößerung durchgeführt.
Zur Bestimmung der Chemoattraktion von Spermien und des Effekts eines Antagonisten wurde Bourgeonal allein bei 10^-7 M und in Kombination mit 10^-6, 10^-7, 10^-8 oder 10^-9 M n-Undecanal getestet. Während der Durchführung der Chemotaxis-Bioassays wurde das Spermienverhalten innerhalb eines Bereiches von 300 µm vor jeder Kapillarspitze 30 Sekunden lang auf Video aufgenommen. Die Videoaufnahme begann 10 bis 15 Minuten nach dem Experimentbeginn, um die Bildung eines chemischen Gradienten zu ermöglichen. Die Spermien-Orientierung zum Gradienten hin wurde unter Verwendung von CAVMA quantifiziert. […]

humane Spermien [2] = test: Ca2+ imaging of head and midpiece of single human spermatozoa; format: cell-based
From the text: Die Ca^2+-imaging-Experimente wurden auf dem Träger eines invertierten Zeiss-Mikroskopes durchgeführt, das für die ratiofluorometrische Bildgebung mit einer Xenon-Bogenlampe, einem Vielfach-Wellenlängen-Illuminations-System POLYCH-ROM II zur Anregung, einer gekühlten charge-coupled device (CCD)-Kamera und einer WinNT-basierten T.I.L.L.-Vision-Software zum Sammeln und raum- und zeitabhängigen Quantifizieren Ca^2+-abhängiger Fluoreszenz-Signale (F340/F380-Verhältnis) ausgestattet war. HEK293-Zellen wurden mit 32-facher, Spermazellen mit 63-facher Vergrößerung beobachtet.
HEK293- und Spermazellen wurden unter Verwendung eines speziellen Applikations-Systems, das es gestattete, vorübergehend alle Zellen im Blickfeld aus einem von sechs benutzergewählten Kapillarröhrchen zu überspülen, Geruchs- und/oder Wirkstoffen (Testlösungen) ausgesetzt. Der Wechsel zwischen den Testlösungen erfolgte nahezu sofort; auch trat im Wesentlichen keine Wirkungsverzögerung nach dem Wechsel auf, weil die Röhrchenspitzen zum optischen Feld eng benachbart waren. Zwischen den Applikationen von Testlösungen überspülte ein Pufferlösungsstrom kontinuierlich alle Zellen im Gefäß, um jedwede potentielle Hintergrund-Anreicherung von Testlösungen (Geruchs- bzw. Wirkstoffen) zu minimieren. Alle Lösungen wurden bei Raumtemperatur appliziert. Alle verwendeten Geruchsstoffe stammten von Dr. T. Gerke, Henkel KGaA, Düsseldorf, FRG, andere Wirkstoffe wurden von Sigma gekauft. Zur Zusammensetzung der Henkel 100-Mischung vergleiche C. H. Wetzel et al., Journal of Neuroscience 19, 7426-7433 (1999).
Die mögliche Rolle von hOR17-4 in einem Ca^2+-vermittelten physiologischen Prozess in humanen Spermatozoen (z.B. Acrosomreaktion, Kapazitationsprozess oder Änderungen zur hyperaktivierten Beweglichkeit) wurden durch Ca^2+-Imaging der Kopf- und der Mittelregion von einzelnen humanen Spermien untersucht. Dazu wurden frisch von jungen, gesunden Spendern erhaltene humane Spermien unverzüglich in 1,5-ml Plastikröhrchen transferiert. Nach 30 minütiger aufrechter Inkubation bei 37 °C wurden 75 µl beweglicher Spermien aus der oberen Schicht der Spermiensuspension auf Concanavalin A-beschichtete 35 mm Petrischalen transferiert und 45 Minuten lang bei Raumtemperatur in 1 ml Ladungspuffer (pH 7,4) mit 140 mM NaCl, 5 mM KCI, 2 mM CaCl2, 2 mM MgCl2, 10 mM Hepes, 10 mM Glucose, 5 µM Fura-2-AM (Molecular Probes), and 0,1 % Pluronic F-127 inkubiert. Danach wurde das Medium sanft durch Fura-2-AM-freie Pufferlösung ausgewechselt. Nicht an den Boden angeheftetes Sperma wurde durch diesen Schritt entfernt. Ca^2+-Bilder wurden von 8 bis 15 Spermatozoen in einem zufällig gewählten Sichtfeld aufgenommen. Die Fluoreszenzsignale eines Spermienkopfes und der Mittelregion wurden gemessen. […]

EC50 (humane Spermien [1]; Homo sapiens, Sperm, 4 h, 37 °C, read-out: ED50 (Konzentration, die die halbmaximale Antwort hervorruft), Zelldichte) [nM]	Compound	Effekt auf das Spermienverhalten, Zelldichte (humane Spermien [1]; 10^-7 M alone, P > 0,99)	Zelldichte als Antwort auf 10^-7 M Bourgeonal relativ zur HTF-Kontrolle (humane Spermien [1]; co-applied with 10^-6, 10^-7 or 10^-8 M n-Undecanal, P > 0,99)	Blockade der Ca^2+-Antworten auf Bourgeonal (humane Spermien [2]; co-application at same concentration as Bourgeonal, with or without pre-incubation, n = 10)	Konzentration ohne weiteren Anstieg der Zelldichte (humane Spermien [1])	Konzentrationen mit signifikanten Antworten im Verhältnis zur HTF-Kontrolle, Zelldichte (humane Spermien [1]; Scheffé test P ≤ 0,03)	vorübergehende Ca^2+-Antworten, Anteil aller getesteten Spermatozoen (humane Spermien [2]; 5 s application, 43 of 119 spermatozoa, 12 experiments) [%]	Schwellenwert (Konzentration für Ca^2+-Antwort) (humane Spermien [2]; about two orders of magnitude lower than for recombinant receptor)	Effizienz (Reihenfolge der Agonisten) in Spermien (humane Spermien [2]; direct comparison in the same sperm)
	CCCCCCCCCCC=O [n-Undecanal]	keinen messbaren Effekt	nicht signifikant erhöht	blockierte vollständig					
30	CC(C)(C)c1ccc(CCC=O)cc1 [Bourgeonal]				> 10^-6 M	≥ 10^-8 M	36	≥ 10^-8 M	potentesten getesteten Liganden
